Experimental data: US6384042B2, “Systemic use of 5-HT3 receptor antagonists against rheumatic inflammatory processes” (priority 1999, dated 2002)

Legend:
Type in all cases: in vivo
[1] = test system: patient exhibiting rheumatoid arthritis and severe consequential synovial inflammation; experiment: Treatment of synovial inflammation/synovitis consequent to inflammatory processes, trial on a patient (Example 1); conditions: for outcome of previous treatment: same rheumatoid arthritis patient, treatment before trial entry
Procedure: The subject is treated for 5 days sequentially with tropisetron administered at a dose of 2 mg/day i.v. Treatment results in amelioration of the synovial inflammation, a reduction of stiffness in the morning and remission from the formation of effusion in the kneejoint.

[2] = test system: patient with meniscus damage and arthritic change leading to synovial inflammation with knee joint effusion; experiment: Treatment of synovial inflammation with knee joint effusion, patient (Example 2)
Procedure: Two 2 mg doses of tropisetron are administered i.v. over a period of 17 days with 15 injections, one each day with a 2 days pause in therapy. […] The improvement in condition continues over a further 7 days observation following completion of therapy.

[3] = test system: patient exhibiting marked dermatomyositis with bioptically verified vasculitis; experiment: Treatment of dermatomyositis/vasculitis, patient (Example 3)
[4] = rheumatoid arthritis patient, 2 mg/day i.v. for 5 days
[5] = 3 injections i.v., each 2 mg, observed already after the first injection

SMILES	outcome of previous treatment [1]	movement of the knee joint ([2]; 2 mg i.v., 15 injections over 17 days)	pain ([2]; 24 hours after the first i.v. injection of 2 mg)	symptoms ([2]; following continuation of injections (2 mg i.v., 15 injections over 17 days))	duration of continued improvement in condition after completion of therapy ([2]; observation following completion of therapy)	exudation from the knee joint ([2]; within 8 days, without any other medication)	formation of effusion in the knee joint [1, 4]	glucocorticoid requirements [1, 4]	measure parameters for inflammation [1, 4]	stiffness in the morning [1, 4]	synovial inflammation [1, 4]	massive reddening of the skin [3, 5]	pain symptoms [3, 5]	complaints in follow-up ([3]; over a period of one week following)
CN(Cc1cnc2nc(N)nc(N)c2n1)c1ccc(C(=O)N[C@@H](CCC(=O)O)C(=O)O)cc1 [methotrexate]	largely unsuccessfully	–	–	–	–	–	–	–	–	–	–	–	–	–
CN1[C@@H]2CC[C@H]1C[C@@H](OC(=O)c1c[nH]c3ccccc13)C2 [tropisetron, Indol-3-yl-carboxylic acid-endo-8-methyl-8-aza-bicyclo[3,2,1]-oct-3-yl-ester]	–	clearly improved	significant improvement	virtually free of symptoms	7 days	completely inhibited	remission	marked reduction	reduction	reduction	amelioration	Virtually complete remission	clear reduction	substantially complaint free
Cn1cnc([N+](=O)[O-])c1Sc1ncnc2[nH]cnc12 [azathioprin]	largely unsuccessfully	–	–	–	–	–	–	–	–	–	–	–	–	–
